Columns and labels:
Rice, W.S. Ind = assay: Test F flood (paddy) test; type: in vivo, Oryza sativa Indica; details: 21 d, scale 0-100
Source text: (§1) Three plastic pots (ca. 16-cm diameter) per rate were partially filled with sterilized Tama silt loam soil comprising a 35:50:15 ratio of sand, silt and clay and 2.6% organic matter. Separate plantings for each of the three pots were as follows. Seeds from the U.S. of monochoria (Monochoria vaginalis), sedge, umbrella (small-flower umbrella sedge, Cyperus difformis), bulrush, […] bulrush, Scirpus juncoides), and […] (purple […] coccinea), were planted into one 16-cm pot for each rate. Seeds from the U.S. of flatsedge, rice (rice flatsedge, Cyperus iria), sprangletop, Brdd. (bearded sprangletop, Leptochloa fascicularis), one stand of 9 or 10 water seeded rice seedlings (Rice, W.S. Jap, Oryza sativa cv. 'Japonica-[…]' or Rice, W.S. Ind, 'Indica'), and two stands of 3 or 4 seedlings of rice, transplanted (transplanted rice, Oryza sativa cv. 'Japonica-[…]') were planted into one 16-cm pot for each rate. Seeds from the U.S. of barnyardgrass (Echinochloa crus-galli), […] (common […], Alisma plantago-aquatica), and watergrass, late (late watergrass, Echinochloa oryzicola) were planted into one 16-cm pot for each rate. Plantings were sequential so that crop and weed species were at the 2.0 to 2.5-leaf stage at time of treatment. Potted plants were grown in a greenhouse with day/night temperature settings of 30/27° C., and supplemental balanced lighting was provided to maintain a 16-h photoperiod. Test pots were maintained in the greenhouse until test completion. At time of treatment, test pots were flooded to 3 cm above the soil surface, treated by application of test compounds directly to the paddy water, and then maintained at that water depth for the duration of the test. Effects of treatments on rice and weeds were visually evaluated by comparison to untreated controls after 21 d. Plant response ratings, summarized in Table F, are based on a scale of 0 to 100 where 0 is no effect and 100 is complete control. A dash (-) response means no test result.

pigweed, palmer = assay: Test E preemergence herbicide test; type: in vivo, Amaranthus palmeri; design: key: 0 = no effect, 100 = complete control
Source text: (§2) Seeds of plant species selected from corn (Zea mays), soybean (Glycine max), velvetleaf (Abutilon theophrasti), lambsquarters (Chenopodium album), wild poinsettia (Euphorbia heterophylla), pigweed, palmer (palmer pigweed, Amaranthus palmeri), waterhemp (common waterhemp, Amaranthus rudis), surinam grass (Brachiaria decumbens), crabgrass, large (large crabgrass, Digitaria sanguinalis), crabgrass, Brazil (Brazilian crabgrass, Digitaria horizontalis), panicum, fall (fall panicum, Panicum dichotomiflorum), foxtail, giant (giant foxtail, Setaria faberii), foxtail, green (green foxtail, Setaria viridis), goosegrass (Eleusine indica), johnsongrass (Sorghum halepense), ragweed (common ragweed, Ambrosia elatior), barnyardgrass (Echinochloa crus-galli), sandbur (southern sandbur, Cenchrus echinatus), arrowleaf […] rhombifolia), ryegrass, Italian (Italian ryegrass, Lolium multiflorum), dayflower, VA (Virginia dayflower, Commelina virginica), field bindweed (Convolvulus arvensis), morningglory (Ipomoea coccinea), nightshade (eastern black nightshade, Solanum ptycanthum), kochia (Kochia scoparia), nutsedge, yellow (yellow nutsedge, Cyperus esculentus), cocklebur (common cocklebur, Xanthium strumarium), smartweed (ladysthumb smartweed, Polygonum Persicaria) and beggarticks (hairy beggarticks, Bidens pilosa), were planted into a silt loam soil and treated preemergence with test chemicals formulated in a non-phytotoxic solvent mixture which included a surfactant. Treated plants and controls were maintained in a greenhouse for 21 days, after which time all species were compared to controls and visually evaluated. Plant response ratings, summarized in Table E, are based on a scale of 0 to 100 where 0 is no effect and 100 is complete control. A dash (-) response means no test result.

canarygrass = assay: Test C postemergence herbicide test; type: in vivo, Phalaris minor
Source text: (§3) At the same time, plants selected from these crop and weed species and also barley (winter barley, Hordeum vulgare), […]), chickweed (common chickweed, Stellaria media), deadnettle (henbit deadnettle, Lamium amplexicaule), and canarygrass (littleseed canarygrass, Phalaris minor) were planted in pots containing Redi-Earth® planting medium (Scotts Company, 14111 Scottslawn Road, Marysville, Ohio 43041) comprising spaghnum peat moss, vermiculite, wetting agent and starter nutrients and treated with postemergence applications of test chemicals formulated in the same manner. Plants ranged in height from 2 to 18 cm (1- to 4-leaf stage) for postemergence treatments. Treated plants and controls were maintained in a greenhouse for 13 to 15 days, after which time all species were compared to controls and visually evaluated. Plant response ratings, summarized in Table C, are based on a scale of 0 to 100 where 0 is no effect and 100 is complete control. A dash (-) response means no test result.

deadnettle = assay: Test C postemergence herbicide test; type: in vivo, Lamium amplexicaule
Source text: as §3

cocklebur = assay: Test E preemergence herbicide test; type: in vivo, Xanthium strumarium; design: key: 0 = no effect, 100 = complete control
Source text: as §2

redstem = assay: Test F flood (paddy) test; type: in vivo, Ammannia coccinea; details: 21 d, scale 0-100
Source text: as §1

flatsedge, rice = assay: Test F flood (paddy) test; type: in vivo, Cyperus iria; details: 21 d, scale 0-100
Source text: as §1

bulrush, hardstem = assay: Test F flood (paddy) test; type: in vivo, Scirpus juncoides; details: 21 d, scale 0-100
Source text: as §1, with “Potted plants were grown in a greenhouse with day/night temperature settings of 30/27° C., and supplemental balanced lighting was provided to maintain a 16-h photoperiod. Test pots were maintained in the greenhouse until test completion. At time of treatment, test pots were flooded to 3 cm above the soil surface, treated by application of test compounds directly to the paddy water, and then maintained at that water depth for the duration of the test.” left out, “Plant response ratings, summarized in Table F, are based on a scale of 0 to 100 where 0 is no effect and 100 is complete control. A dash (-) response means no test result.” left out

Rice, W.S. Jap = assay: Test F flood (paddy) test; type: in vivo, Oryza sativa cv. Japonica—M202; details: 21 d, scale 0-100
How it was run: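 Pots of sterilized Tama silt loam (35:50:15 sand:silt:clay, 2.6% organic matter) were sown so crop and weeds reached the 2.0–2.5-leaf stage; greenhouse 30/27 °C, 16-h photoperiod. Pots flooded to 3 cm, compound applied into paddy water, depth maintained. Visual rating vs untreated controls after 21 d, 0–100 scale.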

waterplantain = assay: Test F flood (paddy) test; type: in vivo, Alisma plantago-aquatica; details: 21 d, scale 0-100
Source text: as §1

[1] = 31 g ai/ha, scale 0 (no effect) to 100 (complete control)
[2] = 62 g ai/ha, scale 0 to 100 (0 no effect, 100 complete control)
[3] = 125 g ai/ha, scale 0 to 100 (0 no effect, 100 complete control)
[4] = 250 g ai/ha, scale 0 to 100 (0 no effect, 100 complete control)

For `CN1CC(c2ccc(F)cc2)C(C(=O)Nc2cccc(F)c2F)C1=O` (centres unmarked) [Compound 271], the “Plant response rating, Rice, W.S. Ind” value (Rice, W.S. Ind; 64 g ai/ha) was 0, the “Plant response rating, Rice, W.S. Ind” value (Rice, W.S. Ind; 125 g ai/ha) was 15 and the “Plant response rating, Rice, W.S. Ind” value (Rice, W.S. Ind; 250 g ai/ha) was 30. For the same compound, the “Plant response rating, Rice, W.S. Ind” value (Rice, W.S. Ind; 500 g ai/ha) was 60.

With `O=C1NCC(c2ccc(C(F)(F)F)cc2)C1C(=O)Nc1ccc(F)c(F)c1F` (centres unmarked) [Compound 232] the “Plant response rating, Pigweed, Palmer” value (pigweed, palmer; 31 g ai/ha) was 0, the “Plant response rating, Pigweed, Palmer” value (pigweed, palmer; 62 g ai/ha) was 0 and the “Plant response rating, Pigweed, Palmer” value (pigweed, palmer; 125 g ai/ha) was 80. For the same compound, the “Plant response rating, Pigweed, Palmer” value (pigweed, palmer; 250 g ai/ha) was 65.

For `O=C1NCC(c2cc(F)c(F)c(F)c2)C1C(=O)Nc1ccccc1F` (racemic) [Compound 34], the “Plant response rating, Canarygrass” value (canarygrass; [1]) was 0, the “Plant response rating, Canarygrass” value (canarygrass; [2]) was 0 and the “Plant response rating, Canarygrass” value (canarygrass; [3]) was 0. The “Plant response rating, Canarygrass” value (canarygrass; [4]) was 0, the “Plant response rating, Deadnettle” value (deadnettle; [1]) was 0 and the “Plant response rating, Deadnettle” value (deadnettle; [2]) was 0. For the same compound, the “Plant response rating, Deadnettle” value (deadnettle; [3]) was 0 and the “Plant response rating, Deadnettle” value (deadnettle; [4]) was 0.

In the case of `O=C1NCC(c2ccc(F)cc2)C1C(=O)Nc1ccccc1F` (racemic) [Compound 16], the “Plant response rating, Cocklebur” value (cocklebur; 16 g ai/ha) is reported as 0, the “Plant response rating, Cocklebur” value (cocklebur; 31 g ai/ha) is reported as 0 and the “Plant response rating, Cocklebur” value (cocklebur; 62 g ai/ha) is reported as 0. The “Plant response rating, Cocklebur” value (cocklebur; 125 g ai/ha) was 0, the “Plant response rating, Cocklebur” value (cocklebur; 250 g ai/ha) was 0 and the “Plant response rating, Pigweed, Palmer” value (pigweed, palmer; 16 g ai/ha) was 0. The “Plant response rating, Pigweed, Palmer” value (pigweed, palmer; 31 g ai/ha) was 0, the “Plant response rating, Pigweed, Palmer” value (pigweed, palmer; 62 g ai/ha) was 0 and the “Plant response rating, Pigweed, Palmer” value (pigweed, palmer; 125 g ai/ha) was 0. For the same compound, the “Plant response rating, Pigweed, Palmer” value (pigweed, palmer; 250 g ai/ha) was 0.

With `O=C1NCC(c2cccc(C(F)(F)F)c2)C1C(=O)Nc1ccccc1F` (racemic) [Compound 3] the “Plant response rating, Redstem” value (redstem; 250 g ai/ha) was 0, the “Plant response rating, Redstem” value (redstem; 500 g ai/ha) was 20 and the “Plant response rating, Flatsedge, Rice” value (flatsedge, rice; 250 g ai/ha) was 0. The “Plant response rating, Flatsedge, Rice” value (flatsedge, rice; 500 g ai/ha) was 20, the “Plant response rating, Bulrush, Hardstem” value (bulrush, hardstem; 250 g ai/ha) was 0 and the “Plant response rating, Bulrush, Hardstem” value (bulrush, hardstem; 500 g ai/ha) was 30. For the same compound, the “Plant response rating, Rice, W.S. Jap” value (Rice, W.S. Jap; 250 g ai/ha) was 0 and the “Plant response rating, Rice, W.S. Jap” value (Rice, W.S. Jap; 500 g ai/ha) was 10.

In the case of `O=C1NCC(c2cccc(Br)c2)C1C(=O)Nc1ccccc1F` (centres unmarked) [Compound 66], the “Plant response rating, Cocklebur” value (cocklebur; 16 g ai/ha) is reported as 0, the “Plant response rating, Cocklebur” value (cocklebur; 31 g ai/ha) is reported as 0 and the “Plant response rating, Cocklebur” value (cocklebur; 62 g ai/ha) is reported as 0.

`O=C1NCC(c2ccccc2)C1C(=O)Nc1ccccc1F` (racemic) [Compound 81] was tested, and the “Plant response rating, Canarygrass” value (canarygrass; [1]) was 0, the “Plant response rating, Canarygrass” value (canarygrass; [2]) was 0 and the “Plant response rating, Canarygrass” value (canarygrass; [3]) was 0. For the same compound, the “Plant response rating, Canarygrass” value (canarygrass; [4]) was 0.

With `O=C1NCC(c2cccc(C(F)(F)F)c2)C1C(=O)Nc1ccc(F)cc1F` (racemic) [Compound 207] the “Plant response rating, Rice, W.S. Ind” value (Rice, W.S. Ind; 125 g ai/ha) was 0, the “Plant response rating, Rice, W.S. Ind” value (Rice, W.S. Ind; 250 g ai/ha) was 0 and the “Plant response rating, Rice, W.S. Ind” value (Rice, W.S. Ind; 500 g ai/ha) was 10.

`O=C1NCC(c2ccc(C(F)(F)F)c(F)c2)C1C(=O)Nc1cccc(F)c1F` (racemic) [Compound 247] was tested, and the “Plant response rating, Redstem” value (redstem; 125 g ai/ha) was 0, the “Plant response rating, Redstem” value (redstem; 250 g ai/ha) was 0 and the “Plant response rating, Redstem” value (redstem; 500 g ai/ha) was 0. For the same compound, the “Plant response rating, Redstem” value (redstem; 1000 g ai/ha) was 50, the “Plant response rating, Redstem” value (redstem; 2000 g ai/ha) was 55 and the “Plant response rating, Flatsedge, Rice” value (flatsedge, rice; 125 g ai/ha) was 0. The “Plant response rating, Flatsedge, Rice” value (flatsedge, rice; 250 g ai/ha) was 0, the “Plant response rating, Flatsedge, Rice” value (flatsedge, rice; 500 g ai/ha) was 0 and the “Plant response rating, Flatsedge, Rice” value (flatsedge, rice; 1000 g ai/ha) was 0. The “Plant response rating, Flatsedge, Rice” value (flatsedge, rice; 2000 g ai/ha) was 35, the “Plant response rating, Waterplantain” value (waterplantain; 125 g ai/ha) was 80 and the “Plant response rating, Waterplantain” value (waterplantain; 250 g ai/ha) was 85. The “Plant response rating, Waterplantain” value (waterplantain; 500 g ai/ha) was 90, the “Plant response rating, Waterplantain” value (waterplantain; 1000 g ai/ha) was 90 and the “Plant response rating, Waterplantain” value (waterplantain; 2000 g ai/ha) was 90.

Reference: US10294202B2, “Pyrrolidinones as herbicides” (FMC Corporation, priority 2013, dated 2019)
